ChEMBL document CHEMBL5465560, “Selectivity Literature for EUbOPEN Chemogenomic Library” (2024)

Key:
[1] = target: Casein kinase I isoform alpha (Homo sapiens, UniProt P48729); assay: Selectivity interaction (Kinase panel (Reaction Biology)) EUB0001205a CSNK1A1; conditions: at 1 µM
[2] = target: Casein kinase I isoform alpha-like (Homo sapiens, UniProt Q8N752); assay: Selectivity interaction (Tracer competition assays (Reaction Biology) ) EUB0001205a CSNK1A1L
[3] = target: T1, Casein kinase I isoform delta (Homo sapiens, UniProt P48730); assay: Selectivity interaction (Kinase panel (Reaction Biology)) EUB0001205a CSNK1D; conditions: at 1 µM
[4] = target: T1, Casein kinase I isoform delta; assay: Selectivity interaction (Western Blot assay (autophosphorylation of CSNK1D in HEK293T-REx cells)) EUB0001205a CSNK1D; type: cell-based, T-REx-293
[5] = target: T2, Casein kinase I isoform epsilon (Homo sapiens, UniProt P49674); assay: Selectivity interaction (Kinase panel (Reaction Biology)) EUB0001205a CSNK1E; conditions: at 1 µM
[6] = target: T2, Casein kinase I isoform epsilon; assay: Selectivity interaction (Western Blot assay (autophosphorylation of CSNK1E in HEK293T-REx cells)) EUB0001205a CSNK1E; type: cell-based, T-REx-293
[7] = target: TRAF2 and NCK-interacting protein kinase (Homo sapiens) (UniProt Q9UKE5); assay: Selectivity interaction (Kinase panel (Reaction Biology)) EUB0001205a TNIK; conditions: at 1 µM
[8] = target: T3, Tyrosine-protein kinase ZAP-70 (Homo sapiens) (UniProt P43403); assay: Selectivity interaction (Kinase panel (Reaction Biology)) EUB0001205a ZAP70; conditions: at 1 µM
T3 sequence (whole entry): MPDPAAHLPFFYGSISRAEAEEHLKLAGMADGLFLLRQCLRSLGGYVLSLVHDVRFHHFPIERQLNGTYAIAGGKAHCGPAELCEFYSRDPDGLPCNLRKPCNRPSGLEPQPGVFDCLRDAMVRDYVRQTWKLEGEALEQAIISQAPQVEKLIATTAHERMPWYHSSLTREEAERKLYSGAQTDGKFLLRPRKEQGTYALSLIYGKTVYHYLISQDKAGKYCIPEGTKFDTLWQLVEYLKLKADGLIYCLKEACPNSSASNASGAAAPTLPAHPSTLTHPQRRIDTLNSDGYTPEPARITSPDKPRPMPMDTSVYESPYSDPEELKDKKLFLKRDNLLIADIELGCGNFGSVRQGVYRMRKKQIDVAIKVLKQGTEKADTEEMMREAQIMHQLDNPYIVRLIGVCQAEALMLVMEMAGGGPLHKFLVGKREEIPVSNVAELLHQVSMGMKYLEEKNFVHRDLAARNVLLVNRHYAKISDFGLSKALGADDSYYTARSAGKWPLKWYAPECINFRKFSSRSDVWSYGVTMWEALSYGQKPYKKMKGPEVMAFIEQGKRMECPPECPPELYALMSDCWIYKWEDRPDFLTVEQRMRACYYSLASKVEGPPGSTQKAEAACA

[9] = target: Activin receptor type-1B (Homo sapiens, UniProt P36896); assay: Selectivity interaction (NanoBRET assay (HEK293T cells)) EUB0001465a ACVR1B; type: cell-based, HEK-293T
[10] = target: Bone morphogenetic protein receptor type-1A (Homo sapiens, UniProt P36894); assay: Selectivity interaction (NanoBRET assay (HEK293T cells)) EUB0001465a BMPR1A; type: cell-based, HEK-293T
[11] = target: Bone morphogenetic protein receptor type-1B (Homo sapiens, UniProt O00238); assay: Selectivity interaction (NanoBRET assay (HEK293T cells)) EUB0001465a BMPR1B; type: cell-based, HEK-293T
[12] = target: TGF-beta receptor type-1 (Homo sapiens, UniProt P36897); assay: Selectivity interaction (NanoBRET assay (HEK293T cells)) EUB0001465a TGFBR1; type: cell-based, HEK-293T
[13] = target: ATPase family AAA domain-containing protein 2 (Homo sapiens, UniProt Q6PL18); assay: Selectivity interaction (BROMOscan) EUB0001074a ATAD2
[14] = target: ATPase family AAA domain-containing protein 2B (Homo sapiens, UniProt Q9ULI0); assay: Selectivity interaction (BROMOscan) EUB0001074a ATAD2B
Sequence of ATPase family AAA domain-containing protein 2B (Q9ULI0 whole entry, the tested form may be a part): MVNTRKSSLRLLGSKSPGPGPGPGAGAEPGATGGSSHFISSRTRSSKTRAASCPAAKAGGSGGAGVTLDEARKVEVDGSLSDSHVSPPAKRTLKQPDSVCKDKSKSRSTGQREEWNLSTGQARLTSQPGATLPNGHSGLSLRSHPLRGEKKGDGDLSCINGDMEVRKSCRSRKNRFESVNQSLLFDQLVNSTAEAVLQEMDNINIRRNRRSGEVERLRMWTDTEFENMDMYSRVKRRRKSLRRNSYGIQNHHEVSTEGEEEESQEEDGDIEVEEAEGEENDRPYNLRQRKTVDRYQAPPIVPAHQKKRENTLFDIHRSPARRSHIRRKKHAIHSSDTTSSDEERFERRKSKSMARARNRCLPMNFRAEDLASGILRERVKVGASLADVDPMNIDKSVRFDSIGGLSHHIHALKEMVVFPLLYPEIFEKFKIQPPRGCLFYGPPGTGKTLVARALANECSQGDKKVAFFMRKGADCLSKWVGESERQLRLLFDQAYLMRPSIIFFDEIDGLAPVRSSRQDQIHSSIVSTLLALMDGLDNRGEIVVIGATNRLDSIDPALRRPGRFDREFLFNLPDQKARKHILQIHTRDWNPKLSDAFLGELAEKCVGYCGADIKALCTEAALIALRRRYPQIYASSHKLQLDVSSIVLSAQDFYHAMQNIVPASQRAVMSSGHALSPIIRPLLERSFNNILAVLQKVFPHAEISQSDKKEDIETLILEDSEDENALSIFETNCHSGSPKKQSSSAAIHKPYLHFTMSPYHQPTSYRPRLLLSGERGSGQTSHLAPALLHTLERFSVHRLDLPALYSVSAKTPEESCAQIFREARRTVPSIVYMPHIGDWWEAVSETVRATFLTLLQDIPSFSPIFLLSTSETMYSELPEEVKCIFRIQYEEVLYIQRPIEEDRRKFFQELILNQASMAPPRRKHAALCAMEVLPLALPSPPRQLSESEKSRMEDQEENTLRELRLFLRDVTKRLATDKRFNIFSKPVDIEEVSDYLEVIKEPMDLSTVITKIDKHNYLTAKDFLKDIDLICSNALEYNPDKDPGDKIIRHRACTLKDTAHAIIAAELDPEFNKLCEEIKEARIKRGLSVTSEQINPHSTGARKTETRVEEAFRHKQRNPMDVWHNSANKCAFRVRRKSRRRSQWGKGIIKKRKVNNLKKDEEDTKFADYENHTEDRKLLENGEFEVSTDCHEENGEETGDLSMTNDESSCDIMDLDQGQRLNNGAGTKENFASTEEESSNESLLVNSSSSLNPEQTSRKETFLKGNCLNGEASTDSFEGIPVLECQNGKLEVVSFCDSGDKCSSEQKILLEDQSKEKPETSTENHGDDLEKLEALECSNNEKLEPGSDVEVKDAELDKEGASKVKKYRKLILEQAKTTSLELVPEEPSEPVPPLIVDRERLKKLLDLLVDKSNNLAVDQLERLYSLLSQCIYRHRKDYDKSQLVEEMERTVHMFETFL

[15] = target: Bromodomain adjacent to zinc finger domain protein 2A (Homo sapiens, UniProt Q9UIF9); assay: Selectivity interaction (BROMOscan) EUB0001074a BAZ2A
[16] = target: T4, Bromodomain-containing protein 4 (Homo sapiens, UniProt O60885); assay: Selectivity interaction (BROMOscan) EUB0001074a BRD4
[17] = target: T4, Bromodomain-containing protein 4; assay: Selectivity interaction (AlphaScreen) EUB0001074a BRD4
[18] = target: Bromodomain-containing protein 7 (Homo sapiens, UniProt Q9NPI1); assay: Selectivity interaction (BROMOscan) EUB0001074a BRD7
[19] = target: T5, Bromodomain-containing protein 9 (Homo sapiens, UniProt Q9H8M2); assay: Selectivity interaction (BROMOscan) EUB0001074a BRD9
T5 sequence (Q9H8M2 whole entry): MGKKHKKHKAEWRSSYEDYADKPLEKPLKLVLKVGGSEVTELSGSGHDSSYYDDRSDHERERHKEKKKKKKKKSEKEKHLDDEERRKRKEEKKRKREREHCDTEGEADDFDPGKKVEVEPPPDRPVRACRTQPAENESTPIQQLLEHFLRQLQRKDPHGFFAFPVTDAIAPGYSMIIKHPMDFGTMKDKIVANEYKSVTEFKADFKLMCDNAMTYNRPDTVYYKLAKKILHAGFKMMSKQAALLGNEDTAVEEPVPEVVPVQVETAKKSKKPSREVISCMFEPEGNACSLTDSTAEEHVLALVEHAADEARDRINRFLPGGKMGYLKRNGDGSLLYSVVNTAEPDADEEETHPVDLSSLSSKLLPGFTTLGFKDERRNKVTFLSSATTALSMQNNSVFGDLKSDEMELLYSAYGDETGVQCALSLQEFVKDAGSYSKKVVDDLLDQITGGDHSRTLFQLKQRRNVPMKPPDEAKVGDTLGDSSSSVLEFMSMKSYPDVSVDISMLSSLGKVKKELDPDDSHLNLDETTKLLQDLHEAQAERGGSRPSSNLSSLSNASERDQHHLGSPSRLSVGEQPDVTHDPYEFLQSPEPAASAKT

[20] = target: T5, Bromodomain-containing protein 9; assay: Selectivity interaction (AlphaScreen) EUB0001074a BRD9
[21] = target: Peregrin (Homo sapiens, UniProt P55201); assay: Selectivity interaction (AlphaScreen) EUB0001074a BRPF1
[22] = target: T6, Chromatin remodeling regulator CECR2 (Homo sapiens, UniProt Q9BXF3); assay: Selectivity interaction (BROMOscan) EUB0001074a CECR2
T6 sequence (Q9BXF3 whole entry): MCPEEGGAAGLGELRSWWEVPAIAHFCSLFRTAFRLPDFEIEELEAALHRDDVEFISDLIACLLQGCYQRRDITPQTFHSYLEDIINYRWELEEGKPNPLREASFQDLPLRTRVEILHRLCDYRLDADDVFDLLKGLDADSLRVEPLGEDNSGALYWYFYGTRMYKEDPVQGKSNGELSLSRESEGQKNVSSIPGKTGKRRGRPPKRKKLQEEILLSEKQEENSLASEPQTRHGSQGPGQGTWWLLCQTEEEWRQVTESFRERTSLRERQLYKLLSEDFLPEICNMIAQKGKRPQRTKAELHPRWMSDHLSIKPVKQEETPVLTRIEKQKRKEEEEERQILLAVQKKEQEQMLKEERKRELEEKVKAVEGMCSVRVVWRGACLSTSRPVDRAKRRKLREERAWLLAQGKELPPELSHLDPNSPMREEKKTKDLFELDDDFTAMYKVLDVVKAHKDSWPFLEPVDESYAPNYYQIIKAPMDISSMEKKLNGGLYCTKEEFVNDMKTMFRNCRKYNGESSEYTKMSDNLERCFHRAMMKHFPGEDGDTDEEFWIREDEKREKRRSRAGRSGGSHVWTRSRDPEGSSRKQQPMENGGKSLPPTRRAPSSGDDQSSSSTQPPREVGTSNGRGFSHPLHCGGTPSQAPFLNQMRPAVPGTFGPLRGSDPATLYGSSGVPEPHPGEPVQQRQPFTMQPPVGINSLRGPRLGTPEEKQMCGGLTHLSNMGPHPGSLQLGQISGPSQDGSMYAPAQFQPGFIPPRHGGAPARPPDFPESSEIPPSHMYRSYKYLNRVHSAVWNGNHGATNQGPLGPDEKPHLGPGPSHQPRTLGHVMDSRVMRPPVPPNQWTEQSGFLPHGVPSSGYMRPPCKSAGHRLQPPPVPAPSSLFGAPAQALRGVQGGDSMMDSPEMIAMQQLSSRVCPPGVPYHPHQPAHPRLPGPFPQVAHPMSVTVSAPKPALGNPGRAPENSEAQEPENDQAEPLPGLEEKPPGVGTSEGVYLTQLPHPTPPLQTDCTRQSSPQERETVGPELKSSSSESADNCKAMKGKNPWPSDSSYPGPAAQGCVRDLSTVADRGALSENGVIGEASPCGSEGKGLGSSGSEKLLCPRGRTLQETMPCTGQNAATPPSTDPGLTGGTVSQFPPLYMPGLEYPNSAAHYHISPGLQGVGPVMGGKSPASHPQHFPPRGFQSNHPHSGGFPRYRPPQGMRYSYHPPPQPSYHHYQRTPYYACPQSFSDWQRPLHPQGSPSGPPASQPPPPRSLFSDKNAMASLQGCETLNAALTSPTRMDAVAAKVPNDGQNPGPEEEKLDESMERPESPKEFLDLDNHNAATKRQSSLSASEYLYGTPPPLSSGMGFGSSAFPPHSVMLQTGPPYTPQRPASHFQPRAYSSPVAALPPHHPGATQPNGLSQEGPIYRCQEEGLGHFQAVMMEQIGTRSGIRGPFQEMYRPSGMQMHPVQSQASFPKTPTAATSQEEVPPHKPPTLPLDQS

[23] = target: T6, Chromatin remodeling regulator CECR2; assay: Selectivity interaction (AlphaScreen) EUB0001074a CECR2
[24] = target: CREB-binding protein (Homo sapiens, UniProt Q92793); assay: Selectivity interaction (BROMOscan) EUB0001074a CREBBP
[25] = target: Nucleosome-remodeling factor subunit BPTF (Homo sapiens, UniProt Q12830); assay: Selectivity interaction (AlphaScreen) EUB0001074a BPTF
[26] = target: Histone acetyltransferase KAT2B (Homo sapiens, UniProt Q92831); assay: Selectivity interaction (BROMOscan) EUB0001074a KAT2B
[27] = target: SWI/SNF-related matrix-associated actin-dependent regulator of chromatin subfamily A member 2 (Homo sapiens, UniProt P51531); assay: Selectivity interaction (BROMOscan) EUB0001074a SMARCA2
[28] = target: TATA box-binding protein-associated factor RNA polymerase I subunit A (Homo sapiens, UniProt Q15573); assay: Selectivity interaction (AlphaScreen) EUB0001074a TAF1A
[29] = target: E3 ubiquitin-protein ligase TRIM33 (Homo sapiens, UniProt Q9UPN9); assay: Selectivity interaction (BROMOscan) EUB0001074a TRIM33
[30] = target: T7, Mitogen-activated protein kinase 14 (Homo sapiens, UniProt Q16539); assay: Selectivity interaction (Tracer competition assays (Reaction Biology)) EUB0001201a MAPK14
T7 sequence (Q16539 whole entry): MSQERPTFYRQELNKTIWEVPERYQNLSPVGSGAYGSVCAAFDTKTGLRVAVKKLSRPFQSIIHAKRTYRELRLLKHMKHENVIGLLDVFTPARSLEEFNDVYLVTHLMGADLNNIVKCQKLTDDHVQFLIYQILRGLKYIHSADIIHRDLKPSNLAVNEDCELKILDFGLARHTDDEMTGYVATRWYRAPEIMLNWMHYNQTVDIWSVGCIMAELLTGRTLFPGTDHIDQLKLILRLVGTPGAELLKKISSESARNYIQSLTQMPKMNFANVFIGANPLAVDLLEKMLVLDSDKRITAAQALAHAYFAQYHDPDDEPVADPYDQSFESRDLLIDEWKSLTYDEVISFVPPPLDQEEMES

[31] = target: T7, Mitogen-activated protein kinase 14; assay: Selectivity interaction (NanoBRET assay (using HEK293T cells)) EUB0001201a MAPK14; type: cell-based, HEK-293T
[32] = target: Dual specificity protein kinase CLK1 (Homo sapiens, UniProt P49759)
Sequence of Dual specificity protein kinase CLK1 (P49759 whole entry): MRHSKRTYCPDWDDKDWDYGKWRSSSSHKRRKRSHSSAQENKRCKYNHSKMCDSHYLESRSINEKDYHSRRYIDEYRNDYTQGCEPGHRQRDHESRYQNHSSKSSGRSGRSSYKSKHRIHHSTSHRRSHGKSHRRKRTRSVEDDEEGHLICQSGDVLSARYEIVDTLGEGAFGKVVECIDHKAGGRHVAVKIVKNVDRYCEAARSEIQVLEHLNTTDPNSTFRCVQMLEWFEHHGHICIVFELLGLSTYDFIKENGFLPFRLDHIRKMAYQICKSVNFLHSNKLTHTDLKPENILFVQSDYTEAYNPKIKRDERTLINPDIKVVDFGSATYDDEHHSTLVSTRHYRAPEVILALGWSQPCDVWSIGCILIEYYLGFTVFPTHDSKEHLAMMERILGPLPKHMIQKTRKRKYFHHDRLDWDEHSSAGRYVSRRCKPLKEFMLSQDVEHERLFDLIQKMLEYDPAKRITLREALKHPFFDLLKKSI

[33] = target: Dual specificity protein kinase CLK2 (Homo sapiens, UniProt P49760)
[34] = target: Dual specificity protein kinase CLK3 (Homo sapiens, UniProt P49761)
[35] = target: Dual specificity protein kinase CLK4 (Homo sapiens, UniProt Q9HAZ1)
[36] = target: Dual specificity tyrosine-phosphorylation-regulated kinase 1A (Homo sapiens, UniProt Q13627)
[37] = target: Dual specificity tyrosine-phosphorylation-regulated kinase 1B (Homo sapiens, UniProt Q9Y463)
[38] = target: T8, Dual specificity tyrosine-phosphorylation-regulated kinase 2 (Homo sapiens, UniProt Q92630)
T8 sequence (Q92630 whole entry): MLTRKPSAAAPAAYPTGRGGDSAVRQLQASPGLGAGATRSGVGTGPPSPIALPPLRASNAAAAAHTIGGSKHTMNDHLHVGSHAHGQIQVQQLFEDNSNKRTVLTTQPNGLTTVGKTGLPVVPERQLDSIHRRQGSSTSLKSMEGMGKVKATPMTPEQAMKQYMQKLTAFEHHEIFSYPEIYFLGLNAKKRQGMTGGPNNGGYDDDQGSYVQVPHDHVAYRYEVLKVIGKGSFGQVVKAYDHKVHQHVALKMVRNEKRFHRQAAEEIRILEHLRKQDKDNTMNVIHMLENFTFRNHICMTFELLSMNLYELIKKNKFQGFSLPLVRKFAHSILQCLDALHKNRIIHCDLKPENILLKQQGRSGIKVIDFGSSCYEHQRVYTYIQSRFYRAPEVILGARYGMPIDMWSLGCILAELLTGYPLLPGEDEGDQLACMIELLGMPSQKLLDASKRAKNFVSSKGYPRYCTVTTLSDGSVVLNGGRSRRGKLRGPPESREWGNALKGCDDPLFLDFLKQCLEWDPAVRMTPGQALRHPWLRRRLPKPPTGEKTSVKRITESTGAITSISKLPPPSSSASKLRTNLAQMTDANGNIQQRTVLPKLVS

[39] = target: T9, Dual specificity tyrosine-phosphorylation-regulated kinase 3 (Homo sapiens, UniProt O43781)
T9 sequence (O43781 whole entry): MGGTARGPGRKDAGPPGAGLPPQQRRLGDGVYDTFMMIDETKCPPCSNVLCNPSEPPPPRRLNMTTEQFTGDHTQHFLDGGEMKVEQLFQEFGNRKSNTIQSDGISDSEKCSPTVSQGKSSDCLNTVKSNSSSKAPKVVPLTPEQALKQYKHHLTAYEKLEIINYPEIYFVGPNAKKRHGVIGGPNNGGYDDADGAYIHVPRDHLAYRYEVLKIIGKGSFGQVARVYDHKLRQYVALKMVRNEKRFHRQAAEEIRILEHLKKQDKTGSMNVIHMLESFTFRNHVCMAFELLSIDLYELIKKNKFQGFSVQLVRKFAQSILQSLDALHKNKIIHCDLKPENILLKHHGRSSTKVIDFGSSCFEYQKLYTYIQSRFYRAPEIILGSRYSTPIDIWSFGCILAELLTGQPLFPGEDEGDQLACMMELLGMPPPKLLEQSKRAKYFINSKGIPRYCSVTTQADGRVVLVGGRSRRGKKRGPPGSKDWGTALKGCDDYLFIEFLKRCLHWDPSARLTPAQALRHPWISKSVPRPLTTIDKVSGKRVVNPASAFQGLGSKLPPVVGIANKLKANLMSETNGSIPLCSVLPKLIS

[40] = target: T10, SRSF protein kinase 1 (Homo sapiens, UniProt Q96SB4); conditions: at 1 µM
T10 sequence (Q96SB4 whole entry): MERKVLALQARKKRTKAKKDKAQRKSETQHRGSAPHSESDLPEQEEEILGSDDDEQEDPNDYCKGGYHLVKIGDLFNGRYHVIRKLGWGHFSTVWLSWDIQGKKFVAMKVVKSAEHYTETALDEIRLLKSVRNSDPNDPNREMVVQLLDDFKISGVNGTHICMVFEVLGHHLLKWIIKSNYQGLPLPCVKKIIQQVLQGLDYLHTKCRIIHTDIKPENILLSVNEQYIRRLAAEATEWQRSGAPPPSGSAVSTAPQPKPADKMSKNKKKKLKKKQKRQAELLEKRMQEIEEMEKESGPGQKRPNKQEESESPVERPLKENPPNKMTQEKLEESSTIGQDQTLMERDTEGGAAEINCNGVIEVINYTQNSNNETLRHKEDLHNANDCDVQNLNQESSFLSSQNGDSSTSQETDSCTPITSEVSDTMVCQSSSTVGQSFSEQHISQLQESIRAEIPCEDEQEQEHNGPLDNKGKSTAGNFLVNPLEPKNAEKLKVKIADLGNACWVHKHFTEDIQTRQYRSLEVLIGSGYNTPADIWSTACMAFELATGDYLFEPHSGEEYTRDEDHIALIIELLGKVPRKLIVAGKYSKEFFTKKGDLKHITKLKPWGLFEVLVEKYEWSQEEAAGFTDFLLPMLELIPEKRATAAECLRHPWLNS

[41] = target: T10, SRSF protein kinase 1
[42] = target: SRSF protein kinase 2 (Homo sapiens) (UniProt P78362)

Sequence of Casein kinase I isoform alpha-like (Q8N752 whole entry, canonical isoform): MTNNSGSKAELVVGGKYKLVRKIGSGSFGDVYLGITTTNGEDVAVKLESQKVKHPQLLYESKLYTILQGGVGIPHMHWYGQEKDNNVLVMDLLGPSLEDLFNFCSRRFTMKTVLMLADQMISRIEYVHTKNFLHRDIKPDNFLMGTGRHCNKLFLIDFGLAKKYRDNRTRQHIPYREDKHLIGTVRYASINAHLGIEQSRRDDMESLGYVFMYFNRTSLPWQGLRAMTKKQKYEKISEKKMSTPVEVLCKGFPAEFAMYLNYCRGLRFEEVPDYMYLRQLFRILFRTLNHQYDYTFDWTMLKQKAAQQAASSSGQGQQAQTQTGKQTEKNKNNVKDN

## CN1CCC(F)(Cn2cnc(-c3ccc(F)cn3)c2-c2ccnc3[nH]ccc23)CC1
[1]
  % of inhibition: 6%
[2]
  IC50: 0.52 µM
[3]
  % of inhibition: -6%
[4]
  IC50: 0.5 µM
[5]
  % of inhibition: 0%
[6]
  IC50: 12.4 µM
[7]
  % of inhibition: 43%
[8]
  % of inhibition: 71%

## COc1cc(-c2cncc(-c3ccc(N4CCN(C(C)C)CC4)cc3)c2C)cc(F)c1C(=O)N1CCCC1
[9]
  IC50: > 0.01 µM
[10]
  IC50: > 0.01 µM
[11]
  IC50: > 0.01 µM
[12]
  IC50: > 0.01 µM

## CCc1cc2cc(NS(=O)(=O)c3ccc(C#N)cc3)ccc2n(CC)c1=O
[13]
  IC50: > 100 µM
[14]
  IC50: > 100 µM
[15]
  IC50: > 100 µM
[16]
  IC50: > 100 µM
[17]
  IC50: > 200 µM
[18]
  IC50: > 100 µM
[19]
  IC50: > 100 µM
[20]
  IC50: > 200 µM
[21]
  IC50: > 200 µM
[22]
  IC50: > 100 µM
[23]
  IC50: > 200 µM
[24]
  IC50: > 100 µM
[25]
  IC50: > 200 µM
[26]
  IC50: > 100 µM
[27]
  IC50: > 77 µM
[28]
  IC50: > 200 µM
[29]
  IC50: > 100 µM

## CCc1ccc(-c2ncn(CC3(F)CCN(C)CC3)c2-c2ccnc3[nH]ccc23)nc1
[30]
  IC50: > 3 µM
[31]
  IC50: 9.9 µM

## CN(c1ncccc1CNc1ccnc(-c2nc3c(F)c(Cl)ccc3[nH]2)n1)S(C)(=O)=O
[32]
  IC50: > 10 µM
[33]
  IC50: > 10 µM
[34]
  IC50: > 10 µM
[35]
  IC50: > 10 µM
[36]
  IC50: > 10 µM
[37]
  IC50: > 10 µM
[38]
  IC50: > 10 µM
[39]
  IC50: > 10 µM
[40]
  % of control: 8.76%
[41]
  dTM: 9.1 K
[42]
  dTM: 4 K
